The source of these data is patent US20080193550A1, “Cla-Enriched Milkfat and Uses Thereof” (FONTERRA CORPORATE RESEARCH AND DEVELOPMENT LIMITED, priority 2004, published 2008).

In data set [1] the test system is OVA challenged mice. Nature of the data set: Inflammatory cell infiltration into the lung: total and differential BAL cell counts after OVA challenge. The settings on record: Example 8, 0.07% (w/w) in diet; for Reduction in numbers of lymphocytes in BAL / Reduction in numbers of monocytes/macrophages in BAL / Reduction of total BAL cell counts / Suppression of accumulation of eosinophils in BAL: compared to control diet. Format: in vivo, C57BL/6 mice. The protocol: Eight to nine week old male and female C57BL/6 mice (University of Auckland, New Zealand) were kept on an ovalbumin (OVA)-free normal mouse chow diet from weaning up until they were assigned to a particular diet (control or experimental diet). Each diet group (n=6) contained an equal number of male and female mice. Throughout the study period mice were kept in an air-conditioned room with controlled humidity, temperature, and a 12 h light:dark cycle.
(§1) Body weights were determined, and blood samples collected via the tail vein, prior to assignment of mice to particular diets. After two weeks on an assigned diet mice were immunized with two intraperitoneal (i.p.) injections of 20 μg of OVA (chicken egg albumin grade V; Sigma Chemical Co., St Louis, Mo.) complexed with 2 mg of Imject Alum (Al(OH)3/Mg(OH)2; Pierce Rockford Ill.) in a total volume of 100 μl of PBS on days 0 and 14. Two weeks after the 2nd injection mice were anaesthetized by i.p. injection of a mixture of ketamine and xylazine (Phoenix, Auckland, New Zealand), and challenged intranasally with 100 μg of OVA in 50 μl of PBS. Undiseased control mice were immunized and challenged with PBS using a similar regime. Body weights were determined, and blood, bronchoalveolar lavage (BAL) fluid, and lung tissue samples were collected 6 days after the intranasal challenge. Blood was collected by cardiac puncture after deeply anaesthetizing mice by i.p. injection of a mixture of ketamine and xylazine. Serum was separated from blood samples, and stored at −80° C.
Bronchoalveolar lavage was performed immediately after euthanasia by flushing 1 ml of PBS containing 1% heat inactivated fetal calf serum (lavage buffer) thrice through the lung and airways of mice via the cannulated trachea. The recovered BAL was pooled for each animal, centrifuged at 1,500 rpm at 4° C., and the supernatant stored at −80° C. The cell pellets were resuspended in 1 ml of lavage buffer, and total cell numbers were counted using a hemocytometer. BAL cells were centrifuged onto poly-L-lysine-coated glass slides using a cytospin, and stained with Diff-Quik stain (Dade Behring Inc. USA). Differential cellular counts were made by counting ≧300 cells under light microscopy (Nikon E200 microscope), using standard morphological criteria.

The next data set deals with OVA-specific IgE. Nature of the data set: OVA-specific IgE in serum by ELISA. As to conditions: Table 9; 0.07% (w/w) in diet; OVA challenged mice. The class given is in vivo, C57BL/6 mice. The protocol: as §1
(§2) OVA-specific IgG1 in serum samples was measured by standard ELISA employing 96 well microtitre plates (Nunc Maxisorp). Plates were coated with 100 μl of 0.1 M carbonate buffer, pH 9.5, containing 10 μg/ml of OVA (Sigma) overnight at 4° C. After 3 washes with PBS-T (PBS with 0.05% Tween-20) plates were blocked with 200 μl of 3% BSA in PBS, pH 7.2, at room temperature for 90 min. One hundred microlitres of each serum sample (diluted 1:40) was added in triplicate to the wells, and incubated for 2 h at 37° C. Wells were washed four times with PBS-T and 100 μl of goat anti-mouse IgG1-HRP conjugated antibody (Bethyl Laboratories, USA) was added at 1:50,000 dilution. Plates were incubated for 1 h at 37° C., washed 5 times with PBS-T, and 100 μl of peroxidase enzyme substrate o-phenylene diamine (OPD, Sigma Chemical Co, St Louis, Mo.) was added to each well. The colour reaction was stopped after ˜20 min by addition of 50 μl of 4 M H2SO4 to each well. Absorbance was read at 490 nm in a BioRad microplate ELISA reader. Positive and negative sera were used as controls.
OVA-specific IgE was measured as for OVA-specific IgG1 except serum samples were diluted 1:5, and OVA was coated on plates at 100 μg/ml (35). A biotin-conjugated rat anti-mouse IgE monoclonal antibody (diluted 1:200; Pharmingen, San Diego, Calif.) was used to detect OVA-specific IgE antibody, and was detected with avidin-HRP conjugate (diluted 1:250) followed by development with OPD.
A general note: ELISA stands for enzyme-linked immunosorbent assay.

Another data set concerns OVA-specific IgG1. Nature of the data set: OVA-specific IgG1 in serum by ELISA. As to conditions: Table 10; 0.07% (w/w) in diet; OVA challenged mice. Format: in vivo, C57BL/6 mice. On the procedure: as §1, §2
In data set [2] the test system is OVA challenged mice. Nature of the data set: Mucus index score: Schiff staining of airway epithelia. The settings on record: 0.07% (w/w) in diet; for Suppression (inhibition) of mucus production: Example 9, compared to control diet, significance not reached; for Mucus Index Score (Mean ± SEM): Table 7, scale 0-4. The class given is in vivo, C57BL/6 mice. The protocol:
as §1
(§3) Following BAL, the right lobes of lungs were immediately frozen in dry ice and stored at −80° C. for protein and Western blot analysis. The left lobes of lungs were fixed in 4% paraformaldehyde in 0.1 M PBS (pH 7.4) overnight and embedded either in optimum cutting temperature compound (OCT, Tissue Tek) and kept frozen at −80° C. until cryosectioning for immunohistochemistry, or in paraffin for routine histopathological analysis. Some were stained with a combined hematoxylin-Biebrich Scarlet solution by Luna's method for eosinophils to detect eosinophil granules (34) or with Alcian Blue-Periodic Acid Schiff for the detection of acid and neutral mucins and identification of goblet cells.
The level of Schiff staining of airway epithelia was semi-quantitatively determined to give a mucus index score as described (38), but modified in that Schiff staining was scored by microscopic viewing of airways. A minimum of 4 to 6 representative transversely or sagittally sectioned airways were graded per animal using a scale of 0 (no staining), 1 (25% or less of the airway epithelium stained), 2 (26-50% of the airway epithelium stained), 3 (51-75% of the airway epithelium stained), and 4 ([…]). Airways were analysed only when the complete circumference of the airway could be visualized, and those that opened directly into an alveolar space were not included.

For data set [3], the system named is OVA challenged mice. Nature of the data set: Histopathology score of lung airway changes. The settings on record: 0.07% (w/w) in diet; for Inhibition of allergen-specific remodelling and inflammation of the lung, in words: Example 10; for Histopathology score (Mean ± SEM): Table 8. The class given is in vivo, C57BL/6 mice. The protocol:
as §1, §3
The histopathology score was determined from inspection of alcian blue-PAS stained paraffin embedded sections of the left lung of each animal. Lung inflammation, perivascular/peribronchiolar infiltrates, airway epithelial hypertrophy, goblet-cell hyperplasia, constriction of bronchioles, mucin hypersecretion, and beneficial presence of phagocytic macrophages were graded on a scale of 0 (no change) to 4 (marked change). Each animal received an overall histopathology score based on summation of individual scores for each criteria. All slides were scored in a blinded fashion (blinded to diet treatment/group assignment), and scores were presented as the mean±SEM of 4-6 animals/group.

In another data set the test system is liver. As to conditions: fed to mice at 0.4% w/w for 4 weeks; cited from earlier work.

Turning to `CCCCCC/C=C/C=C\CCCCCCCC(=O)O` (single isomer, unassigned) [Synthetic c-9, t-11 CLA isomer Free fatty acid, c-9, t-11 CLA], in the data set with OVA challenged mice [1], the “Reduction in numbers of lymphocytes in BAL” value is on record as 72%, the “Reduction in numbers of monocytes/macrophages in BAL” value is reported as 61%, the “Reduction of total BAL cell counts” value is 74% and the “Suppression of accumulation of eosinophils in BAL” value was 87%. The “IgE Values, Average (allergen-specific IgE responses)” value (“IgE Values, Average” below) with OVA-specific IgE came out at 0.89. Moreover, the “IgG Values, Average (allergen-specific IgG responses)” value (“IgG Values, Average” below) with OVA-specific IgG1 amounted to 1.91. Also, in the data set on OVA challenged mice [2], the “Suppression (inhibition) of mucus production” value (“Suppression (inhibition)” below) is listed as 32% and the “Mucus Index Score (Mean ± SEM)” value stood at 2.04 ± 1.13. For the same compound, in the data set on OVA challenged mice [3], the “Inhibition of allergen-specific remodelling and inflammation of the lung, in words” value was “able to significantly inhibit”; the “Histopathology score (Mean ± SEM)” value is listed as 2.02 ± 0.66. For the same compound, the “Histopathology score (Mean ± SEM)” value with OVA challenged mice [3] (listed as free fatty acid form of the c-9, t-11 isomer) is 2.02.
Regarding “t-10, c-12 CLA [Synthetic t-10, c-12 CLA isomer Triglyceride, reference compound]”, in the data set with OVA-specific IgE, the “IgE Values, Average” value came out at 1.29. For the same compound, the “IgG Values, Average” value with OVA-specific IgG1 was 1.98. Further, in the data set on OVA challenged mice [2], the “Suppression (inhibition)” value is on record as 15% and the “Mucus Index Score (Mean ± SEM)” value turned out to be 2.57 ± 1.16. The “Histopathology score (Mean ± SEM)” value in the data set on OVA challenged mice [3] came to 3.20 ± 0.79.
In the case of “t-10, c-12 CLA [t-10, c-12 CLA isomer, reference compound]”, in the data set on OVA challenged mice [1], the “Eosinophil count compared to the control diet, in words” value is given as “no significant difference”; the “Lymphocyte count compared to the control diet, in words” value is “no significant difference”; the “Monocyte/macrophages count compared to the control diet, in words” value is recorded as “no significant difference”; the “Total BAL count compared to the control diet, in words” value is “no significant difference”. In addition, the “Inhibition of allergen-specific remodelling and inflammation of the lung, in words” value in the data set on OVA challenged mice [3] was “not effective”. For the same compound, in the data set with liver, the “Effect on the liver, in words” value is given as “dramatic enlargement of the liver with steatosis”.
For `CCCCC/C=C\C=C\CCCCCCCCC(=O)O` (single isomer, unassigned) [Synthetic t-10, c-12 CLA isomer Free Fatty Acid, t-10, c-12 CLA, reference compound], the “IgE Values, Average” value in the data set on OVA-specific IgE amounted to 1.25. Moreover, in the data set with OVA-specific IgG1, the “IgG Values, Average” value is given as 1.95. Also, in the data set with OVA challenged mice [2], the “Suppression (inhibition)” value was determined as 7% and the “Mucus Index Score (Mean ± SEM)” value amounted to 2.80 ± 1.35. For the same compound, the “Histopathology score (Mean ± SEM)” value with OVA challenged mice [3] is 3.28 ± 0.46.
With “c-9, t-11 CLA [Synthetic c-9, t-11 CLA isomer Triglyceride]”, in the data set on OVA challenged mice [1], the “Reduction in numbers of lymphocytes in BAL” value is 43%, the “Reduction in numbers of monocytes/macrophages in BAL” value is 53%, the “Reduction of total BAL cell counts” value is recorded as 56% and the “Suppression of accumulation of eosinophils in BAL” value worked out at 62%. The “IgE Values, Average” value in the data set on OVA-specific IgE is 1.17. The “IgG Values, Average” value in the data set on OVA-specific IgG1 is 1.96. Also, in the data set with OVA challenged mice [2], the “Suppression (inhibition)” value is recorded as 15% and the “Mucus Index Score (Mean ± SEM)” value worked out at 2.58 ± 0.94. Moreover, in the data set on OVA challenged mice [3], the “Histopathology score (Mean ± SEM)” value came out at 3.08 ± 0.69.
